Measurements published in patent US6380218B1, “Nicotinamide derivatives” (Pfizer Inc, priority 1997, dated 2002).

Legend:
human recombinant PDE4B = human recombinant PDE4B (Homo sapiens, UniProt Q07343); assay: Hydrolysis of 1 uM cAMP by human recombinant PDE4B; type: biochemical; details: for IC50: human recombinant PDE4B, 1 uM cAMP, read-out: Isozyme - IC50, B; for Enantiomer (+) vs. (−), PDE4B: potency of (+) relative to (−) enantiomer
Description: (§1) To assess pharmacologically which PDE4 isozyme(s) is responsible for eosinophil activation, we have prepared enantiomers of PDE4 inhibitors and compare the inhibitory effect of these enantiomers on PDE activity and eosinophil activation. PDE4 activity is assessed by measuring hydrolysis of 1 uM cAMP by individual human recombinant PDE4 isozymes (PDE4A, 4B, 4C or 4D). Eosinophil activation is estimated by measuring Sephadex beads-induced release of eosinophil derived neurotoxin (EDN) and leukotriene E4 in human whole blood. Table 1 illustrates comparison of one example of (−) and (+) enantiomers on the activity of individual PDE4 isozymes and on the release of END and LTE4.

[1] = tested on: leukotriene E4 (LTE4) release, human whole blood eosinophils; assay: Sephadex beads-induced LTE4 release in human whole blood (eosinophil activation); type: cell-based; details: for IC50: Eosinophil, Sephadex beads, head does not say whether IC30 or IC50, read-out: HWB Eosinophil IC30 or IC50, LTE4; for Enantiomer (+) vs. (−), LTE4: potency of (+) relative to (−) enantiomer
Description: (§2) Inhibition of Eosinophil Degranulation and Activation in Human Whole Blood
(§3) Human Blood Eosinophil Degranulation and Activation Measurement
(§4) Blood Collection and Compound Incubation
(§5) One hundred ml blood is obtained from normal volunteers in Vacutainer tube #6480 (14.3 USP units sodium heparin/ml blood). Heparinized blood is pooled in 50 ml conical centrifuge tubes at 22° C. On ml blood is placed in a 12×75 mm siliconized glass tube containing 1 ul DMSO or 1 ul test compound in triplicate. After mixing, tubes are placed in a shaking water bath at 37° C. for 15 minutes. One ul PGE1 in DMSO is added to all tubes to give a final concentration of 1 uM. After mixing, 100 ul PBS (negative control) or Sephadex G-15 beads in PBS (8.25-16.5 mg/ml final concentration) is added to tubes. After mixing, all tubes are incubated in a shaking water bath at 37° C. for 1-2 hours.
(§6) Preparation of Plasma Samples
(§7) At the end of incubation, 20 ul of 15% EDTA in PBS is added to each assay tube. After mixing, the samples are centrifuged at 2,000 rpm (Sorvall 6000B centrifuge) at 22° C. for 5 minutes.
(§8) EDN (or EPX) and LTE4 Measurements and the Effect of Compounds
(§9) All plasma samples are tested for EDN (eosinophil derived neurotoxin) and LTE4 (leukotriene E4) levels. […] The levels of EDN and LTE4 are determined by a RIA (Kabi Pharmacia Diagnostics) and EIA (Cayman Chemical), respectively. EDN and LTE4 levels are calculated by comparison to a standard curve using Microsoft Excel or other appropriate software. Percent of control EDN or LTE4 release is calculated by:
% Control LTE4=[LTE4(compound)−LTE4(blank)]/[LTE4(total)−LTE4(blank)]
(§10) where the blank is the level of EDN or LTE4 in the absence of Sephadex beads and the total is the level of EDN or LTE4 in the presence of Sephadex beads. An IC30 or IC50 value is defined as the concentration of a compound that inhibits specific EDN or LTE 4 release by 30 or 50%, respectively.
as §1

human recombinant PDE4D = human recombinant PDE4D (Homo sapiens, UniProt Q08499); assay: Hydrolysis of 1 uM cAMP by human recombinant PDE4D; type: biochemical; details: for IC50: human recombinant PDE4D, 1 uM cAMP, read-out: Isozyme - IC50, 4D; for Enantiomer (+) vs. (−), PDE4D: potency of (+) relative to (−) enantiomer
Chain of human recombinant PDE4D (Q08499 whole entry): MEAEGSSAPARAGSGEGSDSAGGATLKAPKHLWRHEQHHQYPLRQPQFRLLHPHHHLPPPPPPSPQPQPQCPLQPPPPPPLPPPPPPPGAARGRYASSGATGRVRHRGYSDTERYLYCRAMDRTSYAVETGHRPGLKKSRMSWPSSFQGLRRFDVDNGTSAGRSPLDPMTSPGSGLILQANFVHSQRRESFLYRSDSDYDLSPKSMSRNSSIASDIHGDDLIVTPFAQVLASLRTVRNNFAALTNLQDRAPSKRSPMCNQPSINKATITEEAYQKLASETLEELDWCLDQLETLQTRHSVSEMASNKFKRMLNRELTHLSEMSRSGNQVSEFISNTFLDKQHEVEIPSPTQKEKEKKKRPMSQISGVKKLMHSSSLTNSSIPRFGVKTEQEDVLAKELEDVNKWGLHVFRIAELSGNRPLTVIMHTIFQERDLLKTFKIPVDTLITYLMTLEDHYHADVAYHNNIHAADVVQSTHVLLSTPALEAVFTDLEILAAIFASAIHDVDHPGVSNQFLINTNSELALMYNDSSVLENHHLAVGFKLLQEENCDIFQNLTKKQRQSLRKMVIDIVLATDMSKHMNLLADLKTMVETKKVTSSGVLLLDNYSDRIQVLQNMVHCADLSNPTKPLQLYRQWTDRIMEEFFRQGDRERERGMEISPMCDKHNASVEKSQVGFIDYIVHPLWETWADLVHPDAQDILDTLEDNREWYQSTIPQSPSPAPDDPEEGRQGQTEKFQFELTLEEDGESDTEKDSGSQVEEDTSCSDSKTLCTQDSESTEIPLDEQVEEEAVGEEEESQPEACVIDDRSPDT
Description: as §1

[2] = tested on: eosinophil derived neurotoxin (EDN) release, human whole blood eosinophils; assay: Sephadex beads-induced EDN release in human whole blood (eosinophil degranulation); type: cell-based; details: for IC50: Homo sapiens, Eosinophil, read-out: HWB Eosinophil IC30 or IC50, EDN; for Enantiomer (+) vs. (−), EDN: potency of (+) relative to (−) enantiomer, human whole blood
Description: as §2, §3, §4, §5, §6, §7, §8, §9
% Control EDN=[EDN(compound)−EDN(blank)]/[EDN(total)−EDN(blank)]
as §10, §1

human recombinant PDE4C = human recombinant PDE4C (Homo sapiens, UniProt Q08493); assay: Hydrolysis of 1 uM cAMP by human recombinant PDE4C; type: biochemical; details: for IC50: human recombinant PDE4C, 1 uM cAMP, read-out: Isozyme - IC50, C; for Enantiomer (+) vs. (−), PDE4C: potency of (+) relative to (−) enantiomer
Chain of human recombinant PDE4C (Q08493 whole entry): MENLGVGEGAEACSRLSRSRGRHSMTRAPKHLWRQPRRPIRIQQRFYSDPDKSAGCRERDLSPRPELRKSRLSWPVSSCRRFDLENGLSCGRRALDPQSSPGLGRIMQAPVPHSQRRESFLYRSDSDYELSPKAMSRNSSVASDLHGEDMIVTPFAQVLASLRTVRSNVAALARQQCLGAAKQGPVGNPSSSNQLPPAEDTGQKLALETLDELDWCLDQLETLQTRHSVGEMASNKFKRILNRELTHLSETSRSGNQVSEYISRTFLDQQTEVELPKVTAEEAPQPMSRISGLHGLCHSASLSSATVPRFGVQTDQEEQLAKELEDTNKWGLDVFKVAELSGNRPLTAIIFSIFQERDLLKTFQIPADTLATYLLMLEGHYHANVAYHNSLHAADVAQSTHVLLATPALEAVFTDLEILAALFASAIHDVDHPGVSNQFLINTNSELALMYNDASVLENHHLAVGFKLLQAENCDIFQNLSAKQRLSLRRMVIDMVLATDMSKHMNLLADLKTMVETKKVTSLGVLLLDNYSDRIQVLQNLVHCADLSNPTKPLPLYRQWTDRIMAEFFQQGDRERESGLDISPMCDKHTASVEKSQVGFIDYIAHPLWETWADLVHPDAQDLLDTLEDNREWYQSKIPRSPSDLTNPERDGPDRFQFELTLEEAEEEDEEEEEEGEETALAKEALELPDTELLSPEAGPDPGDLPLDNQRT
Description: as §1

human recombinant PDE4A = human recombinant PDE4A (Homo sapiens, UniProt P27815); assay: Hydrolysis of 1 uM cAMP by human recombinant PDE4A; type: biochemical; details: for IC50: human recombinant PDE4A, 1 uM cAMP, read-out: Isozyme - IC50, A; for Enantiomer (+) vs. (−), PDE4A: potency of (+) relative to (−) enantiomer
Chain of human recombinant PDE4A (P27815 whole entry): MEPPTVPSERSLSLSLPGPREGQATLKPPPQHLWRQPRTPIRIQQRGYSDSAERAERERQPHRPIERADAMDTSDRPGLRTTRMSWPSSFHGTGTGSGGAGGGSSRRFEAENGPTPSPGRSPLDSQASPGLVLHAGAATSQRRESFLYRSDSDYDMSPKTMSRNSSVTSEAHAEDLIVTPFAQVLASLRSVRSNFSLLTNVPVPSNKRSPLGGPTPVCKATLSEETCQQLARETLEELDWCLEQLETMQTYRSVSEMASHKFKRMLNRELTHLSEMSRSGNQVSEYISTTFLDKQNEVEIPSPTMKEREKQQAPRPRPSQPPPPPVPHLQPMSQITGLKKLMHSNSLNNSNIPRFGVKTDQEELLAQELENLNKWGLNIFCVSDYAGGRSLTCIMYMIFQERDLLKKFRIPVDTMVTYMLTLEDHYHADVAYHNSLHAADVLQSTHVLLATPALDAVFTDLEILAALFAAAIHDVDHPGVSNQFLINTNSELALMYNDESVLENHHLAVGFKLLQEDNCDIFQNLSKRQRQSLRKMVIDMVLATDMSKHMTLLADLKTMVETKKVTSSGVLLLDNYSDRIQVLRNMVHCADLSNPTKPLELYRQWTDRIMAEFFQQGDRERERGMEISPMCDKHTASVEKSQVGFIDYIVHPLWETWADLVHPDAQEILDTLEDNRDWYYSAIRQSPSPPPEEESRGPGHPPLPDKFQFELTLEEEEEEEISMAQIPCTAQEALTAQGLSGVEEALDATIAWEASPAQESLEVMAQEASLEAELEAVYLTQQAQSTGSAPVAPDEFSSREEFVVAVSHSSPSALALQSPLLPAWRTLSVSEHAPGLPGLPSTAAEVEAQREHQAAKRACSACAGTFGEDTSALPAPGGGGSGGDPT
Description: as §1

Chain of human recombinant PDE4B (Q07343 whole entry): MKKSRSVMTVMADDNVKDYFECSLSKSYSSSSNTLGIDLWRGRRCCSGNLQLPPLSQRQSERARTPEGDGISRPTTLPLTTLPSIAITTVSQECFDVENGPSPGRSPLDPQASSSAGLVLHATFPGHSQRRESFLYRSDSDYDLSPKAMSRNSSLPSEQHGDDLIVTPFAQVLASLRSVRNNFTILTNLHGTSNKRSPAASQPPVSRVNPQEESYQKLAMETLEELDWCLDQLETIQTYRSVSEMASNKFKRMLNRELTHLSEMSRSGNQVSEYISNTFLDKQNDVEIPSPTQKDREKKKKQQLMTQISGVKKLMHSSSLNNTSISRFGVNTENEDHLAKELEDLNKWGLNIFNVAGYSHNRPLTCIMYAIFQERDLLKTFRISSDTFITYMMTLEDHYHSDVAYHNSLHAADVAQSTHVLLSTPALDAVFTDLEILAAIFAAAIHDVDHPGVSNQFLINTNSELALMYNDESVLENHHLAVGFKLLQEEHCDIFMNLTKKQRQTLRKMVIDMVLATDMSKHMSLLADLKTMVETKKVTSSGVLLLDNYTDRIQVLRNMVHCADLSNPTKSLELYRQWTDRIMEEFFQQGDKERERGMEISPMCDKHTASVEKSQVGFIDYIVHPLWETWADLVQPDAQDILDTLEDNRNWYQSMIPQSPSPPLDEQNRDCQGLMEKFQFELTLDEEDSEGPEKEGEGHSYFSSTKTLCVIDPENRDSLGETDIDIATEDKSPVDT

| Compound | IC50 (human recombinant PDE4B) [nM] | Enantiomer (+) vs. (−), PDE4B (human recombinant PDE4B) | IC50 [1] [nM] | Enantiomer (+) vs. (−), LTE4 [1] | IC50 (human recombinant PDE4D) [nM] | Enantiomer (+) vs. (−), PDE4D (human recombinant PDE4D) [X] | IC50 [2] [nM] | Enantiomer (+) vs. (−), EDN [2] | IC50 (human recombinant PDE4C) [nM] | Enantiomer (+) vs. (−), PDE4C (human recombinant PDE4C) | IC50 (human recombinant PDE4A) [nM] | Enantiomer (+) vs. (−), PDE4A (human recombinant PDE4A) |
| --- | --- | --- | --- | --- | --- | --- | --- | --- | --- | --- | --- | --- |
| COc1ccc([C@H](C)NC(=O)c2cccnc2Oc2ccc(F)cc2)cc1 [(+) Enantiomer, (S)-(+) 2-(4-Fluoro-phenoxy)-N-[1-(4-methoxy-phenyl)-ethyl]-nicotinamide] | 600 | approximately equipotent | 8 | 20-37 X | 9 | 22 | 50 | 20-37 X | 800 | approximately equipotent | 600 | approximately equipotent |
| COc1ccc([C@@H](C)NC(=O)c2cccnc2Oc2ccc(F)cc2)cc1 [(−) Enantiomer, (R)(−)2-(4-Fluoro-phenoxy)-N-[1-(4-methoxy-phenyl)-ethyl]-nicotinamide] | 300 | – | 300 | – | 200 | – | 1000 | – | 400 | – | 600 | – |
| (S)-(+) 2-(4-Fluoro-phenoxy)-N-[1-(4-methoxy-phenyl)-ethyl]-nicotinamide [(+) Enantiomer] | – | .5X | – | 37X | – | 22 | – | 20X | – | 0.5X | – | .s. |
